Where “and” joins values, the source holds several entries; their conditions need not be identical. Identical values can stand only once.
Tests used:
[1] = tested on: T1, Plasmodium falciparum Dd2-attB (parental line), asexual blood stages; test: microbe, parasite or virus in culture; design: replicate k of 3 (each line is one of three independent assays; the three lines of one compound and parasite line follow each other); details: n = 1; for Individual replicates / Log AC50 (M): 72 h; for AC50: Plasmodium falciparum, DD2, 72 h, read-out: Individual replicates / Log AC50 (converted)
T1 construct: Dd2-attB, the isogenic parental line
Experimental: (§1) The overexpression of the fumarate-dependent yeast DHODH confers resistance to compounds that inhibit the parasite mETC, or the parasite DHODH enzyme that depends on ubiquinone provided by the parasite mETC. Assays were performed in three independent assays on a subset of compounds, and differences between the Dd2-attB parental line and the ScDHODH transgenic line were analyzed using two-sided Student’s t-tests.

[2] = tested on: T2, Plasmodium falciparum Dd2-attB-ScDHODH (transgenic line expressing yeast DHODH), asexual blood stages; test: organism not typed; design: replicate k of 3 (each line is one of three independent assays; the three lines of one compound and parasite line follow each other)
T2 construct: Dd2-attB-ScDHODH, the transgenic line that expresses yeast DHODH
Experimental: as §1

[3] = 72 h; n = 1; read-out: Individual replicates / Log AC50 (converted)

SMILES	Individual replicates / Log AC50 (M) [1]	AC50 [1]	Individual replicates / Log AC50 (M) ([2]; 72 h, n = 1)	AC50 [2, 3]	Individual replicates / Log AC50 (M) ([2]; 72 h; n = 1)
COC(=O)c1ccnc2sc(N(CCCN3CCCCC3)c3ccccc3Cl)nc12 [NCGC00480953-01]	-5.2486 Log AC50 (M) and -5.3486 Log AC50 (M)	4.48 µM	-5.0986 Log AC50 (M)	4.48 µM	
Oc1ccc(CNc2cccc(F)c2F)c2cccnc12 [NCGC00183376-01]	-4.7486 Log AC50 (M)	17.8 µM		17.8 µM	-4.7486 Log AC50 (M)
O=C(O)c1ccc(O)c2ncc(-c3ccc(C(=O)N4CCNCC4)cc3)cc12 [NCGC00189508-01]	-4.7486 Log AC50 (M) and -4.7986 Log AC50 (M)	15.9 µM	-4.7486 Log AC50 (M)	15.9 µM	
Cc1nn2c(c1-c1ccccc1Oc1ccccc1)N(CCCc1ccccc1)CCC2 [NCGC00499718-01]	-4.7986 Log AC50 (M)	15.9 µM		15.9 µM	-4.7986 Log AC50 (M)
COc1ccc(NC2=C(c3ccc(C(F)(F)F)cc3)C(=O)c3ccccc32)cc1 [NCGC00107310-02]	-6.3986 Log AC50 (M) and -6.2986 Log AC50 (M) and -6.5486 Log AC50 (M)		-5.1486 Log AC50 (M) and -5.2986 Log AC50 (M)		
CCOC(=O)c1ccnc(-n2ncc(C(OCCN3CCCCC3)c3ccccc3)c2-c2ccccc2Cl)c1 (stereo not shown) [NCGC00484789-01]	-5.0486 Log AC50 (M) and -4.9986 Log AC50 (M)	8.94 µM	-5.0486 Log AC50 (M) and -4.9486 Log AC50 (M)	14.2 µM	
O=C(O)c1ccnc2cc(-c3nc4ccccc4n3CCN3CCCCC3)sc12 [NCGC00485470-01]	-5.2986 Log AC50 (M) and -5.1986 Log AC50 (M)	6.33 µM	-5.2486 Log AC50 (M)	7.1 µM	
O=C(Nc1ccccn1)c1ccc(-c2cc(O)c3ncccc3c2)cc1 [NCGC00247739-01]	-4.9986 Log AC50 (M) and -4.8986 Log AC50 (M)	7.97 µM	-4.7986 Log AC50 (M)	8.94 µM	
O=C(O)c1ccc(O)c2ncc(N3CCC(N4CCOCC4)C3)cc12 (stereo not shown) [NCGC00241757-01]	-4.9486 Log AC50 (M) and -4.7986 Log AC50 (M)	10 µM		15.9 µM	-4.7986 Log AC50 (M)
CCCCOC(=O)c1ccnc2cc(C(OCCN3CCCCC3)c3ccccc3Cl)sc12 (stereo not shown) [NCGC00481505-01]	-5.2486 Log AC50 (M) and -5.0986 Log AC50 (M)	8.94 µM	-5.0486 Log AC50 (M) and -5.1486 Log AC50 (M)	14.2 µM	
Oc1ccc(CNCc2ccc3c(c2)OCO3)c2cccnc12 [NCGC00183368-01]	-4.7986 Log AC50 (M)	15.9 µM	-4.7486 Log AC50 (M)	15.9 µM	
N=C(N)c1cccc(-c2cnc3c(O)ccc(C(=O)O)c3c2)c1 [NCGC00241054-02]	-4.8986 Log AC50 (M) and -4.9486 Log AC50 (M)	10 µM	-4.7486 Log AC50 (M) and -4.8486 Log AC50 (M)	14.2 µM	

From paper PMC7822874, “Chemoprotective antimalarials identified through quantitative high-throughput screening of Plasmodium blood and liver stage parasites” (Scientific Reports, 2021)
